Assay results: article PMC7551886, “Antitumour Effects of Astaxanthin and Adonixanthin on Glioblastoma” (Marine Drugs, 2020)

Experiments:
GL261 cells [1] = assay: Cell viability (CCK-8 assay) in GL261; assay type: cell-based, mouse; details: GL261, treated for 96 h
Method: (§1) U251MG, GL261, or U87MG cells were seeded onto 96-well plates at a density of 2 × 10^3 cells/well with DMEM supplemented with 10% FBS and then incubated for 24 h, after which the culture medium was changed to DMEM containing 10% FBS. Then, astaxanthin, adonixanthin or temozolomide (Tokyo Chemical Industry Co., Ltd., Tokyo, Japan) were added to the culture. Cell proliferation was determined using the CCK-8 assay according to the manufacturer’s instructions (Dojindo, Kumamoto, Japan). After each incubation, 10 μL of CCK-8 solution were added to each well. Plates were incubated for 3 h for 37 °C, and the absorbance was read at 450 nm with a reference wavelength of 630 nm using a Varioscan Flash 2.4 microplate reader (Thermo Fisher Scientific, Waltham, MA, USA).

U251MG cells = assay: Cell viability (CCK-8 assay) in U251MG; assay type: cell-based, human; details: treated for 96 h
Method: as §1

[2] = system: intracellular ROS in GL261 cells; assay: Reactive oxygen species assay (CM-H2DCFDA); assay type: cell-based, mouse; details: GL261, 1 and 10 µM, 6 h
Method: Intracellular radical activation within GL261 cells was measured with 5-(and-6)-chloromethyl—2′,7′-dichlorodihydrofluorescein diacetate, acetyl ester (CM-H2DCFDA; Thermo Fisher Scientific, MA, USA). Six hours after treatment of temozolomide, astaxanthin, or adonixanthin, CM-H2DCFDA was added to the culture medium and incubated at 37 °C for 1 h under shading in GL261. Fluorescence was measured using a Varioscan Flash 2.4 microplate reader (Thermo Fisher Scientific, MA, USA) at 485 (excitation)-535 nm (emission). Measurements were performed 0, 30, and 60 min after the addition of CM-H2DCFDA.

GL261 cells [3] = assay: BrdU cell proliferation assay; assay type: cell-based, mouse; details: GL261, 10 µM treatment for 72 h; control group 60.56 ± 1.40%
Method: GL261 cells were seeded onto 96-well plates at a density of 2 × 10^3 cells/well with DMEM supplemented with 10% FBS and then incubated for 24 h, after which the culture medium was changed to DMEM containing 10% FBS. Then, astaxanthin, adonixanthin, or temozolomide (Tokyo Chemical Industry Co., Ltd., Tokyo, Japan) were added to the culture. After 72 h of culture, the culture medium was changed to DMEM containing 10% FBS and treated with BrdU at 10 µM for 3 h. After that, immunocytochemistry was performed according to the protocol of anti-BrdU antibody (abcam, ab6326).

p27 = assay: Immunoblotting, p27 expression in GL261; assay type: cell-based, mouse; details: GL261, 10 µM, 48 h
Method: (§2) GL261 cell was seeded at 2.5 × 10^4 cells per well in 24-well plates with culture medium supplemented with 10% FBS. After 24 h of incubation, the medium was changed to DMEM containing 10% FBS and 0.1%DMSO PBS, 300 μM temozolomide, 10 μM astaxanthin, or 10 μM adonixanthin was added for 6 and 48 h. Cells were lysed in a special buffer (RIPA buffer R0278; Sigma-Aldrich, St. Louis, MO, USA) with a protease inhibitor cocktail (Sigma-Aldrich), phosphatase inhibitor cocktails 2 and 3 (Sigma-Aldrich), and sample buffer (Wako, Osaka, Japan). The protein concentration was determined by comparison with a known concentration of bovine serum albumin using the BCA Protein Assay Kit (Thermo Fisher Scientific). The amount of total protein was 2 μg. Equal amounts of protein in sample buffer containing 10% 2-mercaptoethanol were subjected to sodium dodecyl sulphate polyacrylamide gel electrophoresis (SDS-PAGE) in 5-20% gradient gels (SuperSep Ace; Wako), and the separated proteins were transferred to polyvinylidene difluoride membrane (Immobilon-P; Merck Millipore Corporation, Bedford, MA, USA). After blocking for 30 min with Blocking One-P (Nacalai Tesque), we incubated the membranes with primary antibodies overnight at 4 °C. […] The band intensity was […] an Immuno Star LD (Wako). Band intensity was measured using an LAS-4000 UV mini Luminescent Image Analyzer (Fujifilm, Tokyo Japan) and Multi Gauge Version 3.0 (Fujifilm). The phosphorylation of ERK1/2, Akt, and p38 MAPK was measured by normalizing against total ERK1/2, total Akt, and total p38 MAPK. […]

[4] = system: p38 mitogen-activated protein kinase; assay: Immunoblotting, phosphorylation of p38 MAPK in GL261; assay type: cell-based, mouse; details: GL261, 10 µM, 48 h
Method: as §2, with “μg.” for “μg. Equal amounts of protein in sample buffer containing 10% 2-mercaptoethanol were subjected to sodium dodecyl sulphate polyacrylamide gel electrophoresis (SDS-PAGE) in 5-20% gradient gels (SuperSep Ace; Wako), and the separated proteins were transferred to polyvinylidene difluoride membrane (Immobilon-P; Merck Millipore Corporation, Bedford, MA, USA). After blocking for 30 min with Blocking One-P (Nacalai Tesque), we incubated the membranes with primary antibodies overnight at 4 °C.”

cyclin D1 = assay: Immunoblotting, cyclin D1 expression in GL261; assay type: cell-based, mouse; details: GL261, 10 µM, 48 h
Method: as §2, with “μg.” for “μg. Equal amounts of protein in sample buffer containing 10% 2-mercaptoethanol were subjected to sodium dodecyl sulphate polyacrylamide gel electrophoresis (SDS-PAGE) in 5-20% gradient gels (SuperSep Ace; Wako), and the separated proteins were transferred to polyvinylidene difluoride membrane (Immobilon-P; Merck Millipore Corporation, Bedford, MA, USA). After blocking for 30 min with Blocking One-P (Nacalai Tesque), we incubated the membranes with primary antibodies overnight at 4 °C.”

NADPH oxidase 4 (Nox4) = assay: Immunoblotting, Nox4 expression in GL261; assay type: cell-based, mouse; details: GL261, 10 µM, 6 h
Method: as §2, with “μg.” for “μg. Equal amounts of protein in sample buffer containing 10% 2-mercaptoethanol were subjected to sodium dodecyl sulphate polyacrylamide gel electrophoresis (SDS-PAGE) in 5-20% gradient gels (SuperSep Ace; Wako), and the separated proteins were transferred to polyvinylidene difluoride membrane (Immobilon-P; Merck Millipore Corporation, Bedford, MA, USA). After blocking for 30 min with Blocking One-P (Nacalai Tesque), we incubated the membranes with primary antibodies overnight at 4 °C.”

Akt = assay: Immunoblotting, phosphorylation of Akt in GL261; assay type: cell-based, mouse; details: GL261, 10 µM, 6 h post-treatment
Method: as §2, with “μg.” for “μg. Equal amounts of protein in sample buffer containing 10% 2-mercaptoethanol were subjected to sodium dodecyl sulphate polyacrylamide gel electrophoresis (SDS-PAGE) in 5-20% gradient gels (SuperSep Ace; Wako), and the separated proteins were transferred to polyvinylidene difluoride membrane (Immobilon-P; Merck Millipore Corporation, Bedford, MA, USA). After blocking for 30 min with Blocking One-P (Nacalai Tesque), we incubated the membranes with primary antibodies overnight at 4 °C.”

Bcl-2 = assay: Immunoblotting, Bcl-2 expression in GL261; assay type: cell-based, mouse; details: GL261, 10 µM, 48 h
Method: as §2

phosphorylation of p38 MAPK [4] | expression of Nox4 (NADPH oxidase 4 (Nox4)) | SMILES | concentration above which cell viability was suppressed (GL261 cells [1]) | concentration above which cell viability was suppressed (U251MG cells) | amount of intracellular ROS [2] | BrdU-positive cell rate (GL261 cells [3]) [%] | expression of p27 (p27) | expression of cyclin D1 (cyclin D1) | phosphorylation of Akt (Akt) | expression of Bcl-2 vs. control (Bcl-2)
increased | no change | CC1=C(/C=C/C(C)=C/C=C/C(C)=C/C=C/C=C(C)/C=C/C=C(C)/C=C/C2=C(C)C(=O)[C@@H](O)CC2(C)C)C(C)(C)C[C@H](O)C1=O [Astaxanthin, astaxanthin] | more than 5 µM | more than 1 µM | decreased | 49.13 ± 2.66 | increased | decreased | decreased | N.S.
increased | significantly decreased | CC1=C(/C=C/C(C)=C/C=C/C(C)=C/C=C/C=C(C)/C=C/C=C(C)/C=C/C2=C(C)C(=O)[C@@H](O)CC2(C)C)C(C)(C)C[C@H](O)C1 [Adonixanthin, adonixanthin] | > 0.1 µM | > 0.1 µM | decreased | 41.31 ± 1.51 | increased | decreased | decreased | N.S.
